These results are taken from PubChem BioAssay (NCI).

What all share (experiment): inhibition of tumour cell growth, NCI panel, 48 h
For experiment [1], the system named is OVCAR-4 ovarian.
The test system of experiment [2] is HCC-2998 colon.
Experiment [3] deals with SNB-75 CNS.
For experiment [4], the system named is KM12 colon.
Experiment [5] deals with UACC-257 melanoma.
For experiment [6], the system named is SF-295 CNS.
In experiment [7] the test system is SN12C renal.
Experiment [8] relates to SK-MEL-28 melanoma.
Experiment [9] has as its system SF-539 CNS.
In experiment [10] the test system is COLO 205 colon.

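The compound was tested at five concentrations on cells cultured in 96-well plates, with a 48-hour exposure period. GI50 = concentration required for 50% inhibition of growth. At the TGI there is no net growth.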 Bounds are passed on as bounds.

For the molecule `O=C(NCCN1CCNCC1)c1ccc(Nc2nc3ccccc3c3occc23)cc1`, the GI50 in experiment [1] is 14.3 µM; in experiment [2] it was 1.79 µM; in experiment [3], 7.06 µM; in [4], 19 µM; in [5], 17 µM; in [6], 10.9 µM. In addition, the GI50 in experiment [7] was 18.2 µM; in experiment [8] it was 2.57 µM; in [9], 2.65 µM; in [10], 10.6 µM. Also, the TGI in experiment [1] worked out at 33.3 µM; in experiment [2], 3.9 µM; in experiment [3], 25.9 µM; in experiment [4] it was 40.6 µM; in experiment [5], 33.8 µM; in experiment [6], 30.5 µM. Moreover, the TGI in [7] is 34.9 µM; in [8], 8.45 µM; in [9], 6.36 µM; in experiment [10] it was above 100 µM.
Consider `Nc1cc(-c2ccc(Cl)cc2)nn1-c1nnc(/C=C/c2ccco2)c(=O)[nH]1`, for which the GI50 is 2.64 µM in experiment [1]; 6.6 µM in experiment [2]; 12.9 µM in experiment [3]; 4.05 µM in [4]; 6.55 µM in experiment [5]; 2.1 µM in [6]. Besides, the GI50 was 18.5 µM in experiment [7], 6.42 µM in experiment [8], 4.4 µM in experiment [9] and 3.64 µM in experiment [10]. Also, the TGI in experiment [1] was 13.4 µM; in experiment [2], above 84.5 µM; in experiment [3], 41.4 µM; in [4], above 56.6 µM; in experiment [5], 47.3 µM; in [6], 27.7 µM. The TGI in [7] was above 100 µM; in experiment [8] it was 61 µM; in experiment [9], 22.4 µM; in experiment [10], above 42.9 µM.
As for `O=C1/C(=C/c2cccc([N+](=O)[O-])c2)Sc2scc(-c3ccc([N+](=O)[O-])cc3)[n+]21`, the TGI in experiment [1] was above 100 µM; in [2] it was 29.9 µM; in experiment [3] it was 32.1 µM; in experiment [4] it was 33.3 µM; in experiment [5] it was 69.8 µM; in experiment [6], 53.6 µM. Further, the TGI was 40.9 µM in experiment [7], 62.3 µM in experiment [8], above 100 µM in [9] and above 100 µM in experiment [10].
Turning to `COc1cc(C2c3cc4c(cc3[C@@H](Nc3ccc5c(c3)OCCO5)C3COC(=O)[C@H]23)OCO4)cc(OC)c1O` (stereo not given in full), the TGI is 29.3 µM in experiment [1]; 3.65 µM in experiment [2]; 5.59 µM in [3]; 10.9 µM in experiment [4]; above 32.3 µM in experiment [5]; 4.25 µM in experiment [6]. The TGI is 10.2 µM in experiment [7], above 47.6 µM in experiment [8], 5.07 µM in experiment [9] and 4.43 µM in experiment [10].
In the case of `O=C1CNS(=O)(=O)N1`, the TGI in experiment [1], in experiment [2], in [3], in [4], in [5] and in experiment [6] was above 100 µM throughout. Besides, the TGI in experiment [7], in experiment [8], in [9] and in experiment [10] was above 100 µM in each case.
In the case of `CC1(C)CC(=O)C(CC2C(=O)c3ccccc3C2=O)C(=O)C1`, the TGI in experiment [1], in experiment [2], in experiment [3], in experiment [4], in experiment [5] and in [6] was above 100 µM in each case. Moreover, the TGI in experiment [7], in experiment [8], in experiment [9] and in [10] was above 100 µM in each case.
`Cn1c(=O)nc2n(-c3ccc(Cl)c(C(F)(F)F)c3)c3ccccc3nc-2c1=O`: the TGI in experiment [1] is 62.9 µM; in experiment [2] it was 80.8 µM; in experiment [3] it was above 100 µM; in [4], above 100 µM; in experiment [5], 36.8 µM; in experiment [6], above 100 µM. For the same molecule, the TGI was above 100 µM in [7], above 100 µM in [8], above 79.9 µM in experiment [9] and 49.9 µM in experiment [10].
As for `O=S1CSSC1`, the TGI was 33.9 µM in [1]; 45.8 µM in experiment [2]; 92.6 µM in [3]; 55.8 µM in experiment [4]; 36.4 µM in experiment [5]; 65.1 µM in [6]. In addition, the TGI in experiment [7] was 24.4 µM; in experiment [8], 59.8 µM; in [9] it was 40.1 µM; in experiment [10] it was 32 µM.
Regarding `O=C1/C(=C/c2ccc([N+](=O)[O-])cc2)COc2ccc(O)cc21`, the GI50 in [1] was 11.3 µM; in experiment [2] it was 1.74 µM; in experiment [3] it was above 100 µM; in experiment [4], 2.15 µM; in experiment [5] it was 32.1 µM; in experiment [6] it was above 100 µM. The GI50 in experiment [7] is 2.22 µM; in experiment [8], 5.11 µM; in experiment [9], 4.42 µM; in [10], 10.7 µM. Besides, the TGI in experiment [1] is above 100 µM; in [2], 3.21 µM; in experiment [3] it was above 100 µM; in experiment [4], 5.25 µM; in [5], above 100 µM; in experiment [6], above 100 µM. Also, the TGI turned out to be 6.85 µM in experiment [7], 22.9 µM in experiment [8], 18.3 µM in [9] and 55.7 µM in experiment [10].
Turning to `O=C(CC1(O)C(=O)Nc2c(Cl)ccc(Cl)c21)c1ccc(Cl)cc1Cl` (stereo not given), the TGI turned out to be 23.3 µM in [1]; 32.2 µM in experiment [2]; 46.9 µM in [3]; 30.9 µM in experiment [4]; 25.1 µM in experiment [5]; 41.6 µM in experiment [6]. For the same molecule, the TGI in experiment [7] was 30.5 µM; in experiment [8], 38.8 µM; in experiment [9] it was 39.8 µM; in experiment [10], 31.7 µM.
On to `COc1cc2nc(-c3ccc(C(F)(F)F)cc3)cc(OCCCN3CCCC3)c2cc1OC`, for which the GI50 in [1] is 3.1 µM; in experiment [2], 2.07 µM; in [3], 0.207 µM; in [4], 1.73 µM; in [5] it was 1.37 µM; in experiment [6], 0.393 µM. In addition, the GI50 is 0.558 µM in experiment [7], 1.69 µM in experiment [8], 2.56 µM in experiment [9] and 0.398 µM in experiment [10]. The TGI was above 86.7 µM in experiment [1]; 10 µM in [2]; 4.49 µM in experiment [3]; 30.1 µM in experiment [4]; 8.51 µM in experiment [5]; 1.64 µM in [6]. In addition, the TGI was above 42.7 µM in experiment [7], 5.65 µM in experiment [8], 12.6 µM in [9] and 4.54 µM in [10].
On to `CCCCCCCCCCCC1CC(=O)NCCCN(C)CCCCN(C)CCCN1C` (stereo not given), for which the TGI came to 3.12 µM in [1]; 3.21 µM in experiment [2]; 2.99 µM in experiment [3]; 2.96 µM in experiment [4]; 3.06 µM in experiment [5]; 3.07 µM in experiment [6]. Also, the TGI was determined as 3.14 µM in experiment [7], 3.09 µM in experiment [8], 3.17 µM in [9] and 3.03 µM in experiment [10].
In the case of `Cc1ccc(NC(=O)/C(Cc2cc(=O)oc3cc(O)ccc23)=N\NC(=O)C[N+](C)(C)C)cc1C`, the TGI in experiment [1], in [2], in experiment [3], in [4], in [5] and in experiment [6] was above 100 µM each time. For the same molecule, the TGI in experiment [7], in experiment [8], in [9] and in experiment [10] was above 100 µM in each case.
For `Cc1ccc(NC(=O)/C(Cc2nc3ccc([N+](=O)[O-])cc3[nH]c2=O)=N\NC(=O)C[n+]2ccccc2)c(C)c1`, the TGI in experiment [1] is 46.6 µM; in [2], above 100 µM; in experiment [3], above 100 µM; in experiment [4] it was above 100 µM; in [5] it was above 100 µM; in experiment [6] it was above 100 µM. Further, the TGI in experiment [7] was 98.1 µM; in experiment [8] it was above 100 µM; in experiment [9], above 100 µM; in experiment [10], above 100 µM.
On to `COc1ccc(-c2cnoc2-c2cc(OC)c3c(c2)OCCO3)cc1`, for which the GI50 is 14 µM in experiment [1]; 0.083 µM in experiment [2]; 0.0195 µM in [3]; below 0.0162 µM in experiment [4]; 11.5 µM in experiment [5]; below 0.0108 µM in experiment [6]. The GI50 in [7] is 0.402 µM; in [8] it was 10.1 µM; in experiment [9] it was 0.0235 µM; in experiment [10], 0.0231 µM. Moreover, the TGI in experiment [1] was above 100 µM; in experiment [2] it was 22 µM; in experiment [3] it was 34.4 µM; in experiment [4], 16 µM; in experiment [5], above 100 µM; in experiment [6] it was 22.3 µM. Also, the TGI in experiment [7] is above 94.3 µM; in experiment [8], above 100 µM; in [9] it was 0.0907 µM; in experiment [10] it was 0.0806 µM.
On to `COc1ccc2[nH]c(-c3ccc(O)cc3)cc(=O)c2c1`, for which the TGI in [1] was above 100 µM; in [2], 3.4 µM; in experiment [3] it was 1.7 µM; in experiment [4] it was 7.09 µM; in experiment [5], above 81.2 µM; in [6], 6.71 µM. Also, the TGI in [7] is 54.2 µM; in experiment [8], above 100 µM; in [9] it was 4.32 µM; in [10] it was 6.25 µM.
For `CCNCCNc1cc(-c2ccc(C#N)cc2)c(C#N)c2nc3ccccc3n12`, the GI50 is 2.54 µM in [1]; 6.04 µM in [2]; 1.66 µM in experiment [3]; 3.36 µM in [4]; 3.72 µM in [5]; 1.79 µM in experiment [6]. Moreover, the GI50 in experiment [7] is 3.13 µM; in experiment [8], 1.86 µM; in [9] it was 1.77 µM; in [10] it was 1.88 µM. In addition, the TGI in [1] was 8.74 µM; in [2], 20.8 µM; in [3] it was 4.24 µM; in [4] it was 12.2 µM; in experiment [5], 7.14 µM; in experiment [6], 3.6 µM. The TGI in [7] is 11.8 µM; in [8], 3.72 µM; in experiment [9], 3.49 µM; in experiment [10] it was 4.16 µM.
